Read-outs that look alike come from different tables or passages of the source. *1 amine or outer side, *2 acyl side, *3 side chain or, on linkers, in order; H or OH if unused. Where a SMILES comes first, the peptide text is derived from it. Side-chain parts run from the residue outwards. [ ]: non-standard residue; d: D form. The star is where a group is joined. αMePhe(2-F) = C[C@](N)(Cc1ccccc1F)C(=O)O; γGlu = O=C(O)[C@H](CCC(=O)[*:2])N[*:1]; C14 diacid = O=C(O)CCCCCCCCCCCCC(=O)*; εLys = N[C@@H](CCCCN[*:1])C(=O)[*:2]; αMeY = C[C@](N)(Cc1ccc(O)cc1)C(=O)O; 4Pal = N[C@@H](Cc1ccncc1)C(=O)O; αMeL = CC(C)C[C@](C)(N)C(=O)O; Orn = NCCC[C@H](N)C(=O)O; Aib = CC(C)(N)C(=O)O Some results are limits rather than exact numbers.

Common to all, as to assay type: cell-based
One assay has as its target T1, hGIPR (Homo sapiens, UniProt P48546).
T1 construct: expressed in transfected cells
T1 sequence (P48546 22-466): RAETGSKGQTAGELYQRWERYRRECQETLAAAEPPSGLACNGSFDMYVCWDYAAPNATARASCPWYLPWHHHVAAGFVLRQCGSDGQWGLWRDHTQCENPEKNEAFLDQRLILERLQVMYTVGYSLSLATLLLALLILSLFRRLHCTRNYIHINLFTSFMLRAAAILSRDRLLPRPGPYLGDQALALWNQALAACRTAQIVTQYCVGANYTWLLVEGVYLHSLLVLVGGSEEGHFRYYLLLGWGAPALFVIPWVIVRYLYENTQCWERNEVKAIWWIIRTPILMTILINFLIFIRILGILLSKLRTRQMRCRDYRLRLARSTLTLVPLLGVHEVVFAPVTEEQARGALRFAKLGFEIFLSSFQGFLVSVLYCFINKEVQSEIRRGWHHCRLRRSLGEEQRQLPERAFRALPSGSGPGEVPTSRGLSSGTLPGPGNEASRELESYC
As to the kind of experiment: Functional cAMP formation (HTRF) in HEK-293 clonal cells expressing hGIPR, 0.1% bovine casein, without or with 1.0% human serum albumin. The following applies: for Emax: percent of maximal response to GIP(1-42)NH2; for EC50: geometric mean. In outline: (§1)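 Cells were stimulated with peptide for 30 min at 37° C, then intracellular cAMP was measured by competitive HTRF (665/620 nm ratio) and converted to nM using a cAMP standard curve. Relative EC50 and Emax came from four-parameter logistic fits of percent maximal response against peptide concentration.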

A further assay concerns the target T2, hGCGR (Homo sapiens, UniProt P47871).
T2 construct: expressed in transfected cells
The experiment in a line: Functional cAMP formation (HTRF) in HEK-293 clonal cells expressing hGCGR, 0.1% bovine casein, without or with 1.0% human serum albumin. The procedure, abridged: as §1
(In general: Cyclic AMP is a second messenger, typically raised through Gs and lowered through Gi signalling.)

For the next assay, the target named is hGLP-1R (Homo sapiens, UniProt P43220). As to the kind of experiment: Functional cAMP formation (HTRF) in HEK-293 clonal cells expressing hGLP-1R, 0.1% bovine casein, without or with 1.0% human serum albumin. Further details: expressed in transfected cells. Particulars: for Emax: percent of maximal response to GLP-1(7-36)NH2. In outline: as §1
hGLP-1R, sequence (P43220 24-463): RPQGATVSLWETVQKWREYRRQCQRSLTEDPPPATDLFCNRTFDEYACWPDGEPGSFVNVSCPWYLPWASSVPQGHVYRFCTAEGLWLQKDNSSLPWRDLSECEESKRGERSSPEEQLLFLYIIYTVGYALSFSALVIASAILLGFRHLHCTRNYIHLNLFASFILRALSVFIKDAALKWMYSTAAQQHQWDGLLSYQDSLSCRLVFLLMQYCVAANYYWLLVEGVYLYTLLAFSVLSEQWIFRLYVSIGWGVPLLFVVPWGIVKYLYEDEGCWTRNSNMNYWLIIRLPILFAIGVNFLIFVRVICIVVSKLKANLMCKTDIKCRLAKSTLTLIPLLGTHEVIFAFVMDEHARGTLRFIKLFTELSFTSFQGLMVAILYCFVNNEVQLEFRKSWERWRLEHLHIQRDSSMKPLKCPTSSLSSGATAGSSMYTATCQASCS

T2 sequence (P47871 26-477): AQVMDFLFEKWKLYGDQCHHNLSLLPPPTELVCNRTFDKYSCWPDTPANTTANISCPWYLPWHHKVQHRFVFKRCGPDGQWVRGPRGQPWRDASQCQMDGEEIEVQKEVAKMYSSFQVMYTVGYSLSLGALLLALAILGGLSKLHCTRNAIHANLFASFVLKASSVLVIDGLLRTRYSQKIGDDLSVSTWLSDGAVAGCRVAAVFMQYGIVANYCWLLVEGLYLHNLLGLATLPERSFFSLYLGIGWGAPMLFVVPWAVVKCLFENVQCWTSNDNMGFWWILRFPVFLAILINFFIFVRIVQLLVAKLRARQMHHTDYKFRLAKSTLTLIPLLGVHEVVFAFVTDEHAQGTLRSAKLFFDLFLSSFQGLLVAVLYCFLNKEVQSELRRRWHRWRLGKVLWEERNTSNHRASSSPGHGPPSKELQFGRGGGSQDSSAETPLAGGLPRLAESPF

In general, Emax refers to the maximal effect, on the per cent scale that the assay sets. Usually EC50 stands for the concentration giving half of the maximal effect. On to `CC[C@H](C)[C@H](NC(=O)[C@H](CC(C)C)NC(=O)[C@](C)(Cc1ccc(O)cc1)NC(=O)[C@@H](CCC(=O)O)NC(=O)[C@@H](NC(=O)[C@H](Cc1ccccc1)NC(=O)[C@H](CCC(=O)O)NC(=O)C(C)(C)NC(=O)[C@H](CCC(N)=O)NC(=O)[C@H](C)NC(=O)[C@H](CCCCNC(=O)COCCOCCNC(=O)COCCOCCNC(=O)CCCCCCCCCOc1ccc(C(=O)O)cc1)NC(=O)[C@H](CCCN)NC(=O)[C@H](CC(=O)O)NC(=O)[C@H](CC(C)C)NC(=O)[C@](C)(CC(C)C)NC(=O)[C@@H](NC(=O)C(C)(C)NC(=O)[C@H](Cc1ccncc1)NC(=O)[C@H](CC(=O)O)NC(=O)[C@H](CO)NC(=O)[C@@H](NC(=O)[C@](C)(Cc1ccccc1F)NC(=O)[C@@H](NC(=O)CNC(=O)[C@H](CCC(=O)O)NC(=O)C(C)(C)NC(=O)[C@@H](N)Cc1ccc(O)cc1)[C@@H](C)O)[C@@H](C)O)[C@@H](C)CC)[C@@H](C)CC)C(=O)N[C@@H](CCCCNC(=O)COCCOCCNC(=O)COCCOCCNC(=O)CCCCCCCCCOc1ccc(C(=O)O)cc1)C(=O)NCC(=O)NCC(=O)N1CCC[C@H]1C(=O)N[C@@H](CO)C(=O)N[C@@H](CO)C(=O)NCC(=O)N[C@@H](C)C(=O)N1CCC[C@H]1C(=O)N1CCC[C@H]1C(=O)N1CCC[C@H]1C(=O)N[C@@H](CO)C(N)=O` [Example 395], for which the Emax on hGIPR (HEK293, read-out: hGIPR Emax, % ± SEM, cAMP, 37° C., 0.1% bovine casein and 1.0% human serum albumin) was determined as 57.8%; at hGIPR (HEK293, read-out: hGIPR Emax, % ± SEM, cAMP, 37° C., 0.1% bovine casein, arithmetic mean), 93.1%; on hGLP-1R (HEK293, read-out: hGLP-1R Emax, % ± SEM, cAMP, 37° C., 0.1% bovine casein and 1.0% human serum albumin), 96.1%; on hGLP-1R (HEK293, read-out: hGLP-1R Emax, % ± SEM, cAMP, 37° C., 0.1% bovine casein, arithmetic mean), 90.8%. For the same compound, the EC50 at hGIPR (hGIPR EC50, nM (SEM, n), cAMP, 37° C., 0.1% bovine casein (no human serum albumin)) is 0.0127 nM; on hGCGR (hGCGR EC50, nM (SEM, n), cAMP, 37° C., 0.1% bovine casein (no human serum albumin), geometric mean), > 9950 nM; on hGCGR (hGCGR EC50, nM (SEM, n), cAMP, 37° C., 0.1% bovine casein and 1.0% human serum albumin, geometric mean (SEM, n)) it was > 9950 nM; at hGLP-1R (hGLP-1R EC50, nM (SEM, n), cAMP, 37° C., 0.1% bovine casein (no human serum albumin), geometric mean), 0.377 nM; at hGLP-1R (hGLP-1R EC50, nM (SEM, n), cAMP, 37° C., 0.1% bovine casein and 1.0% human serum albumin, geometric mean (SEM, n)), 6.26 nM.
As to `CC[C@H](C)[C@H](NC(=O)[C@H](CCCN)NC(=O)[C@H](CC(=O)O)NC(=O)[C@H](CC(C)C)NC(=O)[C@](C)(CC(C)C)NC(=O)[C@@H](NC(=O)C(C)(C)NC(=O)[C@@H](NC(=O)[C@H](CC(=O)O)NC(=O)[C@H](CO)NC(=O)[C@@H](NC(=O)[C@](C)(Cc1ccccc1F)NC(=O)[C@@H](NC(=O)CNC(=O)[C@H](CCC(=O)O)NC(=O)C(C)(C)NC(=O)[C@@H](N)Cc1ccc(O)cc1)[C@@H](C)O)[C@@H](C)O)C(C)C)[C@@H](C)CC)C(=O)N[C@@H](C)C(=O)N[C@@H](CCC(N)=O)C(=O)NC(C)(C)C(=O)N[C@@H](CCC(=O)O)C(=O)N[C@@H](Cc1ccccc1)C(=O)N[C@H](C(=O)N[C@@H](CCCCNC(=O)COCCOCCNC(=O)CC[C@H](NC(=O)CCCCCCCCCCCCC(=O)O)C(=O)O)C(=O)N[C@@](C)(Cc1ccc(O)cc1)C(=O)N[C@@H](CC(C)C)C(=O)N[C@H](C(=O)N[C@@H](CCCCNC(=O)COCCOCCNC(=O)CC[C@H](NC(=O)CCCCCCCCCCCCC(=O)O)C(=O)O)C(=O)NCC(=O)NCC(=O)N1CCC[C@H]1C(=O)N[C@@H](CO)C(=O)N[C@@H](CO)C(=O)NCC(=O)N[C@@H](C)C(=O)N1CCC[C@H]1C(=O)N1CCC[C@H]1C(=O)N1CCC[C@H]1C(=O)N[C@@H](CO)C(N)=O)[C@@H](C)CC)[C@@H](C)CC` [Example 400], the Emax on hGIPR (HEK293, cAMP, 37° C., 0.1% bovine casein and 1.0% human serum albumin, read-out: hGIPR Emax, % ± SEM) amounted to 83.2%; at hGIPR (HEK293, cAMP, 37° C., 0.1% bovine casein, arithmetic mean, read-out: hGIPR Emax, % ± SEM) it was 98.1%; at hGLP-1R (HEK293, cAMP, 37° C., 0.1% bovine casein and 1.0% human serum albumin, read-out: hGLP-1R Emax, % ± SEM) it was 109%. Further, the EC50 on hGIPR (cAMP, 37° C., 0.1% bovine casein (no human serum albumin), read-out: hGIPR EC50, nM (SEM, n)) was 0.0821 nM; at hGCGR (cAMP, 37° C., 0.1% bovine casein (no human serum albumin), geometric mean, read-out: hGCGR EC50, nM (SEM, n)), > 9950 nM; at hGCGR (cAMP, 37° C., 0.1% bovine casein and 1.0% human serum albumin, geometric mean (SEM, n), read-out: hGCGR EC50, nM (SEM, n)) it was > 9950 nM; at hGLP-1R (cAMP, 37° C., 0.1% bovine casein (no human serum albumin), geometric mean, read-out: hGLP-1R EC50, nM (SEM, n)), 0.708 nM.
As for `CC[C@H](C)[C@H](NC(=O)[C@H](CC(C)C)NC(=O)[C@](C)(Cc1ccc(O)cc1)NC(=O)[C@@H](CCC(=O)O)NC(=O)[C@@H](NC(=O)[C@H](Cc1ccccc1)NC(=O)[C@H](CCC(=O)O)NC(=O)C(C)(C)NC(=O)[C@H](CCC(N)=O)NC(=O)[C@H](C)NC(=O)[C@H](CCCCNC(=O)[C@@H](N)CCCCNC(=O)CC[C@H](NC(=O)CCCCCCCCCCCCC(=O)O)C(=O)O)NC(=O)[C@H](CCCN)NC(=O)[C@H](CC(=O)O)NC(=O)[C@H](CC(C)C)NC(=O)[C@](C)(CC(C)C)NC(=O)[C@@H](NC(=O)[C@H](CO)NC(=O)[C@H](Cc1ccncc1)NC(=O)[C@H](CC(=O)O)NC(=O)[C@H](CO)NC(=O)[C@@H](NC(=O)[C@](C)(Cc1ccccc1F)NC(=O)[C@@H](NC(=O)CNC(=O)[C@H](CCC(=O)O)NC(=O)C(C)(C)NC(=O)[C@@H](N)Cc1ccc(O)cc1)[C@@H](C)O)[C@@H](C)O)[C@@H](C)CC)[C@@H](C)CC)C(=O)N[C@@H](CCC(=O)O)C(=O)NCC(=O)NCC(=O)N[C@@H](CCCCNC(=O)[C@@H](N)CCCCNC(=O)CC[C@H](NC(=O)CCCCCCCCCCCCC(=O)O)C(=O)O)C(N)=O` [Example 186] (H-Y[Aib]EGT[αMePhe(2-F)]TSD[4Pal]SI[αMeL]LD[Orn]K([εLys-γGlu-C14 diacid])AQ[Aib]EFI[dE][αMeY]LIEGGK([εLys-γGlu-C14 diacid])-NH2; N-terminus assumed), the EC50 is 2.19 nM at hGIPR (0.1% bovine casein and 1.0% human serum albumin, 37° C., read-out: hGIPR EC50, nM (SEM, n)); 0.0274 nM at hGIPR (cAMP, incubated at 37° C., 0.1% bovine casein (no human serum albumin), read-out: hGIPR EC50, nM (SEM, n)); > 9950 nM on hGCGR (0.1% bovine casein and 1.0% human serum albumin, 37° C., geometric mean, read-out: hGCGR EC50, nM (SEM, n)); > 9950 nM on hGCGR (cAMP, incubated at 37° C., 0.1% bovine casein (no human serum albumin), geometric mean, read-out: hGCGR EC50, nM (SEM, n)); 24.3 nM on hGLP-1R (0.1% bovine casein and 1.0% human serum albumin, 37° C., geometric mean, read-out: hGLP-1R EC50, nM (SEM, n)); 0.371 nM at hGLP-1R (cAMP, incubated at 37° C., 0.1% bovine casein (no human serum albumin), geometric mean, read-out: hGLP-1R EC50, nM (SEM, n)). Also, the Emax at hGIPR (HEK293, 0.1% bovine casein and 1.0% human serum albumin, 37° C., read-out: hGIPR Emax, % ± SEM) came to 85.6%.

For the origin of these results see patent publication US20230265151A1, “GIP/GLP1 CO-AGONIST COMPOUNDS” (priority 2020, published 2023).
